# Test results from ChEMBL document CHEMBL3784999, “Investigation of 4-amino-5-alkynylpyrimidine-2(1H)-ones as anti-mycobacterial agents” (Bioorg Med Chem, 2016).
# Active and inactive are the calls of the source. The calls are words filed in the database; no cut-off is given here.
# What was measured:
# [1] = system: Mycobacterium tuberculosis; experiment: Antimycobacterial activity against rifampicin resistant Mycobacterium tuberculosis H37Rv ATCC 35838 at 2 ug/ml; format: functional, organism-based
# [2] = system: Mycobacterium tuberculosis; experiment: Antimycobacterial activity against rifampicin resistant Mycobacterium tuberculosis H37Rv ATCC 35838; format: functional
# [3] = system: Mycobacterium tuberculosis; experiment: Antimycobacterial activity against rifampicin resistant Mycobacterium tuberculosis H37Rv ATCC 35838 at 1 ug/ml; format: functional
structure (smiles),measurement,setting,value
CO[C@H]1/C=C/O[C@@]2(C)Oc3c(C)c(O)c4c(O)c(c(/C=N/N5CCN(C)CC5)c(O)c4c3C2=O)NC(=O)/C(C)=C\C=C\[C@H](C)[C@H](O)[C@@H](C)[C@@H](O)[C@@H](C)[C@H](OC(C)=O)[C@@H]1C [RIFAMPIN],Activity,[1],inactive
CCCCCC#Cc1c[nH]c(=O)nc1N,MIC50,[2],12.5 µg/mL
NNC(=O)c1ccncc1 [ISONIAZID],inhibition at 1 µg/mL,[3],100%
